Measured values reported in ChEMBL document CHEMBL3774369, “Tetrahydroisoquinoline Phenols: Selective Estrogen Receptor Downregulator Antagonists with Oral Bioavailability in Rat” (ACS Med Chem Lett, 2016).

Tests used:
[1] = Percentage unbound in Han Wistar rat plasma by equilibrium dialysis method; format: ADME, cell-free
[2] = Percentage unbound in human plasma by equilibrium dialysis method; format: ADME, cell-free
[3] = Intrinsic clearance in Han Wistar rat hepatocytes assessed per 10^6 cells; format: ADME, cell-based, Hepatocyte; details: read-out: CLH
[4] = Intrinsic clearance in human hepatocytes assessed per 10^6 cells; format: ADME, cell-based, Hepatocyte; details: read-out: CLH
physchem = details: buffer, pH 7.4
[5] = Clearance in rat at 0.5 mg/kg, iv or 1 mg/kg, po; format: ADME, organism-based; details: in vivo
[6] = Volume of distribution at steady state in rat at 0.5 mg/kg, iv or 1 mg/kg, po; format: ADME, organism-based; details: in vivo, read-out: Vdss
[7] = Half life in rat at 1 mg/kg, po; format: ADME, organism-based; details: in vivo
[8] = Half life in rat at 0.5 mg/kg, iv; format: ADME, organism-based; details: in vivo
in vivo = details: rat, po, 1 mg/kg
Adenosine receptor A1 = target: T1, Adenosine receptor A1 (Homo sapiens, UniProt P30542); assay: Inhibition of recombinant human adenosine receptor A1 expressed in CHO cells; format: cell-based
T1 sequence (P30542 whole entry): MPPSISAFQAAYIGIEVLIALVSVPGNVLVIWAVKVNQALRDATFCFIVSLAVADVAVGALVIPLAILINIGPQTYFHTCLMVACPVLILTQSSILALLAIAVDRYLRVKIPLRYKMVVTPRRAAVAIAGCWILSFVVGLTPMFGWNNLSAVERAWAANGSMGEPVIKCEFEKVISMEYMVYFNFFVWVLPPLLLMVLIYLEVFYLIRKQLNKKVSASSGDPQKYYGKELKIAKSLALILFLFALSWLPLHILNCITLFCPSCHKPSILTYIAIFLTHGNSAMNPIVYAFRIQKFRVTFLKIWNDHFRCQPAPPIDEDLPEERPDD

B2 bradykinin receptor = target: T2, B2 bradykinin receptor (Homo sapiens, UniProt P30411); assay: Inhibition of recombinant human bradykinin receptor 2 expressed in CHO cells; format: cell-based
T2 sequence (P30411 whole entry): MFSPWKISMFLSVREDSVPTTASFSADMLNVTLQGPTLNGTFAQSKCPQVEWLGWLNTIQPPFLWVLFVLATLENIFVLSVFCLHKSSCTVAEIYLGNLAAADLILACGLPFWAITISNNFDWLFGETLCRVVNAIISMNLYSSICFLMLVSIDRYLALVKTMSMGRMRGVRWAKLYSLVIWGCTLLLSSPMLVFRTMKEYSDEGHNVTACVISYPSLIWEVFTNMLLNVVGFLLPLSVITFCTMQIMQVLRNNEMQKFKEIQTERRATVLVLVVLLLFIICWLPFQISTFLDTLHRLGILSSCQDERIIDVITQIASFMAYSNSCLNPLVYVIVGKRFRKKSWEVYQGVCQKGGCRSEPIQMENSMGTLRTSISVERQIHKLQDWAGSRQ

Mu-type opioid receptor = Mu-type opioid receptor (Homo sapiens, UniProt P35372); assay: Inhibition of human recombinant mu1 opioid receptor expressed in HEK293 cells; format: cell-based
Chain of Mu-type opioid receptor (P35372 whole entry): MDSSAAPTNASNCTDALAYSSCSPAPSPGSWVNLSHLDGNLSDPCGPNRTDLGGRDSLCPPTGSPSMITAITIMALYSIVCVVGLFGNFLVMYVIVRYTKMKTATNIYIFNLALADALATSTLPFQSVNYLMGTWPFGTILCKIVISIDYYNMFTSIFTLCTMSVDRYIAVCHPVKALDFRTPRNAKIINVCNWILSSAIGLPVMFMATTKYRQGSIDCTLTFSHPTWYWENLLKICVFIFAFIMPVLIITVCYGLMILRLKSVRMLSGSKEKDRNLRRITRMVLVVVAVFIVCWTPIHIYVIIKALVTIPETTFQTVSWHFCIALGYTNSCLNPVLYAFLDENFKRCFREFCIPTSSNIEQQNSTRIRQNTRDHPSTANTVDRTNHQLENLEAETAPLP

[9] = Solubility of compound in aqueous phosphate buffer at pH 7.4 after 24 hrs; format: physicochemical
[10] = Inhibition of cytochrome P450 (unknown origin); format: ADME, Homo sapiens
[11] = target: Voltage-gated inwardly rectifying potassium channel KCNH2 (Homo sapiens, UniProt Q12809); assay: Inhibition of human ERG tail current by plate-based planar patch clamp system
Chain of Voltage-gated inwardly rectifying potassium channel KCNH2 (Q12809 whole entry): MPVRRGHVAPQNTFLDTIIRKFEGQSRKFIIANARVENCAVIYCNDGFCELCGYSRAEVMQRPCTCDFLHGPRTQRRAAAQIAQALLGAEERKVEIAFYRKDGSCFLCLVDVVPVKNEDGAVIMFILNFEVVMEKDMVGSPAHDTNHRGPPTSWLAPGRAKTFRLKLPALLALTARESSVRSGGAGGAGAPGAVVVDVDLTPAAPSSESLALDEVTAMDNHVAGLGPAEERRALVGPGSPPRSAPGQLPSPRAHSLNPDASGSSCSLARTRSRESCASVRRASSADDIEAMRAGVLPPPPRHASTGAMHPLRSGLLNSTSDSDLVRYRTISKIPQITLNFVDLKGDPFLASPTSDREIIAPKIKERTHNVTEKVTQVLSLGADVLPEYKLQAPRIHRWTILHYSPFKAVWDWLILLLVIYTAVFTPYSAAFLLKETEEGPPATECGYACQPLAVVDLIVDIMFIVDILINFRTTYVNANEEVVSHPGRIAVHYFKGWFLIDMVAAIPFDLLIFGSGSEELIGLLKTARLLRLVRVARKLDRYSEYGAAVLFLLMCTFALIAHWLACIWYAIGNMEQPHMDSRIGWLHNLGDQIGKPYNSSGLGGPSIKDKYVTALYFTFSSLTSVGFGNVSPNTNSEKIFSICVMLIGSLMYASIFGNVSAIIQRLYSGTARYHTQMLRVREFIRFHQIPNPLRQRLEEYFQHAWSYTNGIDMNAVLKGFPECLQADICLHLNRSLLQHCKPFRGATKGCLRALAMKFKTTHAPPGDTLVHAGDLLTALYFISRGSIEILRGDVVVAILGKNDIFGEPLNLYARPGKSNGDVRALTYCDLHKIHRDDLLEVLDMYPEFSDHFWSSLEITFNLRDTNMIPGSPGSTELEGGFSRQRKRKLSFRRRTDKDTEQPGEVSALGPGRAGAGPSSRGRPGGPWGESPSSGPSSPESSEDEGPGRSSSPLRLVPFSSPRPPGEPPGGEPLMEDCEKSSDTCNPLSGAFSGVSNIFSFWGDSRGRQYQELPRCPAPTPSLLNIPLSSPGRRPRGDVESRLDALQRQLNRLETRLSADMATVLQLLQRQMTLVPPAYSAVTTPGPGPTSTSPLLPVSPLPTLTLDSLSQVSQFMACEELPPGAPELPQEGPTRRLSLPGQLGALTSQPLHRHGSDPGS

fraction unbound [1]	fraction unbound [2]	hepatocyte CLint [3] [µL/min/1e6 cells]	hepatocyte CLint [4] [µL/min/1e6 cells]	logD (physchem)	clearance [5] [mL/min/kg]	Vd [6] [L/kg]	half-life [7] [h]	half-life [8] [h]	bioavailability (in vivo) [%]	IC50 (Adenosine receptor A1) [µM]	IC50 (B2 bradykinin receptor) [µM]	IC50 (Mu-type opioid receptor) [µM]	solubility at 24 h [9] [µM]	IC50 [10] [µM]	Structure (SMILES)	IC50 [11] [µM]
0.025	0.007	59	19	2.3											CC(C)(F)CN1[C@H](c2ccc(/C=C/C(=O)O)cc2)c2ccc(O)cc2CC1(C)C	
0.019	0.009	33	40	2.2											CC(C)CN1CCc2cc(O)ccc2[C@@]1(C)c1ccc(/C=C/C(=O)O)cc1	
0.005	0.002	68	39	3.1											C[C@H](CF)CN1[C@H](c2c(F)cc(/C=C/C(=O)O)cc2F)c2ccc(O)cc2CC1(C)C	
0.011	0.023	74	78	2.1											C[C@@H]1Cc2cc(O)ccc2[C@@H](c2c(F)cc(/C=C/C(=O)O)cc2F)N1CC(C)(C)F	
0.034	0.02	43	56	2.3											COc1ccc2c(c1)C[C@@H](C)N(CC(C)C)[C@@H]2c1ccc(/C=C/C(=O)O)cc1	
0.087	0.019	49	4	1.4											CC(C)CN1CCc2cc(O)ccc2[C@@H]1c1ccc(/C=C/C(=O)O)cc1	
0.024	0.026	47	100												C[C@H](CF)CN1[C@H](c2ccc(/C=C/C(=O)O)cc2)c2ccc(O)cc2C[C@H]1C	
0.053	0.038	110	45	1.6											COC[C@H](C)CN1[C@H](c2c(F)cc(/C=C/C(=O)O)cc2F)c2ccc(O)cc2C[C@H]1C	
0.063	0.024	32	9	1.6											Cc1c(O)ccc2c1CCN(CC(C)C)[C@@H]2c1ccc(/C=C/C(=O)O)cc1	
0.0006	0.0006	20	11	3.7											O=C(O)/C=C/c1ccc(C2c3ccc(O)cc3CCN2c2ccc(OC(F)(F)F)cc2)cc1 (stereo unspecified)	
0.042	0.01	180	88	2											COC[C@H](C)CN1[C@H](c2c(F)cc(/C=C/C(=O)O)cc2F)c2ccc(O)cc2CC1(C)C	
0.088	0.091	17	17	1.8											Cc1cc2c(cc1O)CCN(CC(C)C)[C@@H]2c1ccc(/C=C/C(=O)O)cc1	
0.016	0.021	24	45	2.5											CC(C)CN1[C@H](c2ccc(/C=C/C(=O)O)cc2)c2ccccc2C[C@H]1C	
0.013	0.015	15	18	2.7	19	1.6	5.6	2.4	33						CC(C)CN1[C@H](C)Cc2cc(O)ccc2[C@@]1(C)c1ccc(/C=C/C(=O)O)cc1	
0.12	0.16	27	7	1	63	0.6	1.9	0.2	3						COC[C@H](C)CN1[C@H](c2ccc(/C=C/C(=O)O)cc2)c2ccc(O)cc2C[C@H]1C	
0.013	0.007	40	150	2.2											O=C(O)/C=C/c1ccc(C2c3ccc(O)cc3CCN2Cc2ccccc2)cc1 (stereo unspecified)	
0.012	0.012	87	67	2.4											O=C(O)/C=C/c1ccc(C2c3ccc(O)cc3CCN2c2ccccc2)cc1 (stereo unspecified)	
0.075	0.07	22	33	1.7	49	0.6	3.9	0.2	86	29	20	12	> 1500	> 30	CC(C)CN1[C@H](c2ccc(/C=C/C(=O)O)cc2)c2ccc(O)cc2C[C@H]1C	> 30
0.11	0.035	7	6	1.5	21	5.9	7.4	5.8	66						CC(C)CN1[C@H](c2ccc(/C=C/C(=O)O)cc2)c2ccc(O)cc2CC1(C)C	
0.004	0.005	34	33	2.7					> 70						CC(C)CN1[C@H](c2c(F)cc(/C=C/C(=O)O)cc2F)c2ccc(O)cc2CC1(C)C	
0.0002	0.009	9	9	4.2	4.2	1.1	6.7	4.2							C[C@@H]1Cc2cc(O)ccc2[C@@H](c2ccc(/C=C/C(=O)O)cc2)N1c1ccc(OC(F)(F)F)cc1	
0.037	0.063	38	38	1.3	44	0.5	3	0.2	26						CC(C)CN1CCc2cc(O)ccc2[C@H]1c1ccc(/C=C/C(=O)O)cc1	
0.028	0.01	24	14	1.8					> 70						C[C@H](CF)CN1[C@H](c2ccc(/C=C/C(=O)O)cc2)c2ccc(O)cc2CC1(C)C	
0.01	0.009	94	170	2.5											C[C@H](CF)CN1[C@H](c2c(F)cc(/C=C/C(=O)O)cc2F)c2ccc(O)cc2C[C@H]1C	
